In PMC12639566, “Identification of antimalarial drugs and bradykinin as ligands of the Plasmodium membrane protein PfSR10” (iScience, 2025):
Peptide text beside a SMILES is read from it.

Tests used:
[1] = molecular target: T1, PfSR10 (Plasmodium falciparum, UniProt Q8I5P8); experiment: GloSensor-cAMP assay, inhibition of forskolin-induced cAMP in PfSR10-overexpressing HEK293 cells; type: cell-based; conditions: for Fsk-induced cAMP level elevation (in words): PfSR10-overexpressing HEK293 cells, concentration-dependent
T1 sequence (Q8I5P8 entry or part of it): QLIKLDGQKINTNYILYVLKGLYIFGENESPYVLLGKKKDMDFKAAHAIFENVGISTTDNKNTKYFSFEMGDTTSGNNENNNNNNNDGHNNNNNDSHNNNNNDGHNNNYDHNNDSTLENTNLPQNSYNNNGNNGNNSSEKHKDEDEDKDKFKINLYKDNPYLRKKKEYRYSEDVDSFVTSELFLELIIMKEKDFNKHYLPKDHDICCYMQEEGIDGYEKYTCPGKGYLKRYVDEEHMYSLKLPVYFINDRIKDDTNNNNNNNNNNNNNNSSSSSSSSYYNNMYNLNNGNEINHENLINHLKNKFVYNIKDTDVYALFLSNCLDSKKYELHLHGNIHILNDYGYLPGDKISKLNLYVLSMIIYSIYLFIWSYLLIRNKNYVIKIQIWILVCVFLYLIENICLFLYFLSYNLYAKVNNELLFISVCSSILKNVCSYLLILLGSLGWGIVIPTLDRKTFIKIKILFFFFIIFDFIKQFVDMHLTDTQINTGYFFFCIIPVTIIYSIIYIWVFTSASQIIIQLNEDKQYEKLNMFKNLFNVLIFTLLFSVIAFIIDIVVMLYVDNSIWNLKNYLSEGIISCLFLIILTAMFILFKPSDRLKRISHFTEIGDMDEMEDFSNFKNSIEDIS
Description: (§1) To examine the constitutive activity of PfSR10, we transfected HEK293 cells with different concentrations of the receptor, including PfSR10, ADGRG2, ADGRG3. For measuring the anti-malarial drugs, bradykinin or des-Arg9-bradykinin-induced inhibition of forskolin-stimulated cAMP level in HEK293 cells or COS-7 cells, the receptor encoding plasmid (PfSR10 or its mutants) or empty plasmid (pcDNA3.1) was co-transfected with the GloSensor plasmid and incubated in an incubator at 37°C with 5% CO2 for 24 h. The transfected cells were then inoculated on 96-well plates (at a density of 4 × 10^4 / well) and incubated in incubators under the same conditions for another 24 hours. Cells were precultured with serum-free medium (Gibco) containing 5% DILUTED GloSensor™cAMP reagent Reserve solution (Progema) for 2 h. The base cAMP signal was directly measured using a multimode tablet reader (PerkinElmer Envision). At the same time, the cAMP signal induced by DHA, PIP-TT, PQ, CQ bradykinin or des-Arg9-bradykinin was detected after adding agonists into the corresponding Wells. Finally, the s-shaped dose response function in GraphPad Prism 7.0 was used to analyze the data.

[2] = molecular target: T1, PfSR10; experiment: FlAsH-BRET assay of PfSR10 extracellular conformational changes; type: cell-based
Description: To characterize the binding properties of different ligands (CQ, DHA, PIP-TT, PQ, bradykinin or des-Arg9-bradykinin) to PfSR10, a FlAsH BRET assay was performed as previously described.[29]^,[32]^,[49] We seeded HEK293 cells or COS-7 cells in 6-well plate were transfected with PfSR10 FlAsH BRET sensors (S1 to S6 as indicated in Figure 4B) and incubated for 48 h at 37°C in 5% CO2. The overexpressed PfSR10 sensors cells were washed with FlAsH BRET buffer (25 mM HEPES, 1 mM CaCl2, 140 mM NaCl, 2.7 mM KCl, 0.9 mM MgCl2, 0.37 mM NaH2PO4, 5.5 mM D-glucose, 12 mM NaHCO3) and incubated with 2.5 μM FlLAsH EDT2 (pre-diluted in FLAsH BRET buffer) for 40min at 37°C in 5% CO2. The cells were washed twice, resuspended with FlAsH BRET buffer, and seeded into a 96-well plate at a density of 5x10^4 per well. After adding increasing concentrations of ligand (CQ, DHA, PIP-TT, PQ, bradykinin or des-Arg9-bradykinin) together with luciferase substrate coelenterazine-h (5 μM), the BRET signals between Nluc (440-480 nm) and FlAsH fluorescent moiety (525-585 nm) emissions were examined by a Mithras LB 940 Multimode Microplate Reader.

[3] = molecular target: PbSR10 (Plasmodium berghei, UniProt A0A509AUP3); experiment: Gi protein trimer dissociation assay in HEK293 cells overexpressing PbSR10; type: cell-based
Sequence of PbSR10 (A0A509AUP3 entry or part of it): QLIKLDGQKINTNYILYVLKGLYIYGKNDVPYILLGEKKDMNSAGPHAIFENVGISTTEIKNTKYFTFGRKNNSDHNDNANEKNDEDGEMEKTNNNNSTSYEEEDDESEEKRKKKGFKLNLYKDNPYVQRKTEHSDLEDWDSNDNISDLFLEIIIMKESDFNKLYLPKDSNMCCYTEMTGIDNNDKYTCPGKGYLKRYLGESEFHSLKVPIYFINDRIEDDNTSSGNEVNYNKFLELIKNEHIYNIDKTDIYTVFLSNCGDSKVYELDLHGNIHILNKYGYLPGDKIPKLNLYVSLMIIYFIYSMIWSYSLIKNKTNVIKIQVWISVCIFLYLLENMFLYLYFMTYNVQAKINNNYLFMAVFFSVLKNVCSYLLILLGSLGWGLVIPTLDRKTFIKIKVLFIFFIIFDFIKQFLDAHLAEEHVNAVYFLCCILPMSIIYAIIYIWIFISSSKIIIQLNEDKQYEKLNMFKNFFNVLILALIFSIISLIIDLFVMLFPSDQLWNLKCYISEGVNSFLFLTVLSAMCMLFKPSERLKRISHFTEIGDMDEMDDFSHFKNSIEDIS

[4] = molecular target: T1, PfSR10; experiment: Gi1-Gγ dissociation BRET assay in PfSR10-overexpressing HEK293 cells; type: cell-based; conditions: for Gi1 coupling with PfSR10 (in words): G protein dissociation assay
Excerpt: (§2) To characterize the G protein signalling properties of PfSR10, G protein BRET probes were generated according to previous publication.[50] The Gqo BRET probes were generated by replacing the six amino acids of the C- terminus of Gq -RlucII with those from GoA1, creating a chimeric Gqo-RlucII subunit.[51] HEK293 cells or COS-7 cells were co-transfected with PfSR10 and various G protein probes (Gi, Gq and Gqo). Forty-eight hours post-transfection, cells were washed twice with HBSS, resuspended with HBSS buffer, and seeded into a 96-well plate at a density of 5x10^4 per well. After adding increasing concentrations of ligand (CQ, DHA, PIP-TT, PQ, Bradykinin, des-Arg9-bradykinin, bradykinin-Arg-FITC, FITC-bradykinin) together with luciferase substrate coelenterazine 400a (5 μM, Cayman), the BRET signals between […] (440-480 nm) and GFP2 (510 nm) emissions were examined by a Mithras LB 940 Multimode Microplate Reader (Berthold Technologies). The BRET signal was calculated as the ratio of the GFP2 emission to Nluc emission.

[5] = molecular target: T1, PfSR10; experiment: Gq-Gγ dissociation BRET assay in PfSR10-overexpressing HEK293 cells; type: cell-based
Excerpt: as §2

[6] = molecular target: PcSR10 (Plasmodium chabaudi, UniProt A0A4V0KCI5); experiment: Gi dissociation assay in HEK293 cells overexpressing PcSR10; type: cell-based; conditions: read-out: Gi activity EC50 downstream of PcSR10
Sequence of PcSR10 (A0A4V0KCI5 entry or part of it): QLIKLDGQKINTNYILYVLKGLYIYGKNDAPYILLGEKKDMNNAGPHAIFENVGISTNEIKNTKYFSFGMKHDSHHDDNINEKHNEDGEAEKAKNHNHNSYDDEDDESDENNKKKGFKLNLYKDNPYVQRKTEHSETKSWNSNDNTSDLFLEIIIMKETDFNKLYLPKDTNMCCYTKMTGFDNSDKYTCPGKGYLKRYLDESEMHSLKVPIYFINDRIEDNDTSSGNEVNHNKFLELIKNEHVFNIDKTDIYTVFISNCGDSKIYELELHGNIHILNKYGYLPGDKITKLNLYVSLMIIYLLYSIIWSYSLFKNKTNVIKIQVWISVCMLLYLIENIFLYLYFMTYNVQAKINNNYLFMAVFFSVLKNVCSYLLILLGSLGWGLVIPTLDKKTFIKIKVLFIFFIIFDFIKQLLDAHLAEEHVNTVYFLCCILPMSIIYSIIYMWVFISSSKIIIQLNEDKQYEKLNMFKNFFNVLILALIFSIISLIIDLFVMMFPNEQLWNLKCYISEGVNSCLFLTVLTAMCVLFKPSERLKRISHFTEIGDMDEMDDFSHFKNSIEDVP

[7] = molecular target: PySR10 (Plasmodium yoelii, UniProt V7PQD6); experiment: Gi dissociation assay in HEK293 cells overexpressing PySR10; type: cell-based; conditions: read-out: Gi activity EC50 downstream of PySR10
Sequence of PySR10 (V7PQD6 entry or part of it): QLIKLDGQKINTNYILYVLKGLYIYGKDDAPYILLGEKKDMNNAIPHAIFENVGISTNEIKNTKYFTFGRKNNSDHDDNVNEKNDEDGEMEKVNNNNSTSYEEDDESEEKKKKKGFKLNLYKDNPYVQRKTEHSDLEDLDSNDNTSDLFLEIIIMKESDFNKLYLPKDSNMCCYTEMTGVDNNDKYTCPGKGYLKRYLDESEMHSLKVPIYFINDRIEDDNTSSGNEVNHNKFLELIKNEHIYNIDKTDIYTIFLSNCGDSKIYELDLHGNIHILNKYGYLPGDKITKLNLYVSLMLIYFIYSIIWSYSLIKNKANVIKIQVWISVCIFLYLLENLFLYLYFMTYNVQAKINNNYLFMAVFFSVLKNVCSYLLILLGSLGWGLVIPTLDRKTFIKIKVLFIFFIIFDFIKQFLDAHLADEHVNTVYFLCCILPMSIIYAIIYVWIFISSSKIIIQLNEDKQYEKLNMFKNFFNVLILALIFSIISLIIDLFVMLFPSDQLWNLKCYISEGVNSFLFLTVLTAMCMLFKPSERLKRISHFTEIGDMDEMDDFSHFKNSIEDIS

[8] = molecular target: T1, PfSR10; experiment: cAMP inhibition in PfSR10-overexpressing COS-7 cells; type: cell-based; conditions: read-out: EC50 in COS-7 cell
Description: as §1

[9] = molecular target: PcSR10 (SR10 of Plasmodium chabaudi) (Plasmodium chabaudi)
[10] = molecular target: PySR10 (SR10 of Plasmodium yoelii) (Plasmodium yoelii)

COc1cc(NC(C)CCCN)c2ncccc2c1 (stereo not shown) [PQ, primaquine diphosphate] was tested, and the EC50 [1] was 17.4 ± 4.77 nM, the “cAMP inhibition Emax” value ([1]; HEK293 cells overexpressing PfSR10, mean ± SEM) was 1.153 ± 0.06 × 10^3 and the “ECL1 movement relative to the PfSR10 N-terminus” value ([2]; concentration-dependent) was “inward movement of ECL1 toward the PfSR10 N-terminus”. The “Gi dissociation downstream of PbSR10” value [3] was “promoted Gi dissociation”.

For N=C(N)NCCC[C@H](NC(=O)[C@H](Cc1ccccc1)NC(=O)[C@@H]1CCCN1C(=O)[C@H](CO)NC(=O)[C@H](Cc1ccccc1)NC(=O)CNC(=O)[C@@H]1CCCN1C(=O)[C@@H]1CCCN1C(=O)[C@@H](N)CCCNC(=N)N)C(=O)O [bradykinin] (H-RPPGFSPFR-OH), the “Fsk-induced cAMP level elevation (in words)” value [1] was “significantly inhibited”, the “Gi1 coupling with PfSR10 (in words)” value [4] was “promoted Gi1 coupling to PfSR10” and the “Gq dissociation signal (in words)” value ([5]; PfSR10-overexpressing cells) was “remarkable reduction”. For the same molecule, the “ECL movements of PfSR10 by FlAsH-BRET sensors (kinin peptides)” value [2] was “movement of ECL1 and ECL3 toward the N-terminus and separation of the ECL2 region and N-terminus of PfSR10”.

Molecule NC(N)=NCCC[C@H](NC(=O)[C@H](Cc1ccccc1)NC(=O)[C@@H]1CCCN1C(=O)[C@H](CO)NC(=O)[C@H](Cc1ccccc1)NC(=O)CNC(=O)[C@@H]1CCCN1C(=O)[C@@H]1CCCN1C(=O)[C@@H](N)CCCN=C(N)N)C(=O)O [bradykinin] (H-RPPGFSPFR-OH) has an EC50 [1] of 1.82 ± 0.83 nM, an EC50 [4] of 0.38 ± 0.11 nM and an EC50 [5] of 0.53 ± 0.06 nM. It also gave an EC50 [6] of 0.15 ± 0.005 nM and an EC50 [7] of 0.67 ± 0.29 nM.

N=C(N)NCCC[C@H](N)C(=O)N1CCC[C@H]1C(=O)N1CCC[C@H]1C(=O)NCC(=O)N[C@@H](Cc1ccccc1)C(=O)N[C@@H](CO)C(=O)N1CCC[C@H]1C(=O)N[C@@H](Cc1ccccc1)C(=O)O [des-Arg9-bradykinin] was tested, and the “Fsk-induced cAMP level elevation (in words)” value [1] was “significantly inhibited”, the “Gi1 coupling with PfSR10 (in words)” value [4] was “promoted Gi1 coupling to PfSR10” and the “ECL movements of PfSR10 by FlAsH-BRET sensors (kinin peptides)” value [2] was “movement of ECL1 and ECL3 toward the N-terminus and separation of the ECL2 region and N-terminus of PfSR10”. For the same molecule, the EC50 [8] was 0.29 ± 0.08 nM.

Work on RPPGFSPFR [bradykinin] yielded an EC50 of Gi activity downstream of PcSR10, concentration-dependent [9] of 0.15 nM and an EC50 of Gi activity downstream of PySR10, concentration-dependent [10] of 0.67 nM.
